Experimental data from paper PMC11620517, “Novel hydrazone compounds with broad-spectrum antiplasmodial activity and synergistic interactions with antimalarial drugs” (Antimicrobial Agents and Chemotherapy, 2024).
Where two headings read alike, the source gives them in different places.

Experiments:
[1] = system: P. cynomolgi hypnozoites and hepatic schizonts; experiment: P. cynomolgi liver-stage inhibition assay; assay type: cell-based, Plasmodium cynomolgi; conditions: Plasmodium cynomolgi, prophylactic drug treatment mode
Protocol: (§1) Primary primate hepatocytes were seeded in 384-well plates and used within 2–4 days ([56]). P. cynomolgi B strain parasites were inoculated and developed into hypnozoites and schizonts. CB compounds were tested in 8-point, threefold serial dilutions (100 µM to […]) for both prophylactic (4 days starting with sporozoite addition) and radical cure (4 days starting day 4 post-inoculation) modalities ([56][–][60]). The Operetta CLS imaging system and Harmony Software 4.9 (Perkin Elmer, Waltham, MA, USA) analyzed the plates, and the percentage of inhibition (PI) was calculated in Python using equation (1), where parasitic quantities (hypnozoite and schizont counts) were normalized to the negative control ([57]). Each plate included negative (DMSO) and positive (KDU691, maduramicin, tafenoquine) controls ([58]). IC50 values were determined using an 8-point, threefold dilution format and a Python-adapted grid algorithm for fitting PI to a four-parameter logistic function ([61]).
PI = 100 ∗(1−(xy/Meanneg))

[2] = in vitro; conditions: human, HepG2 cells
Protocol: HepG2 cell viability was assessed using the Cell Proliferation kit with trypan blue exclusion. […] After incubation, a 1.5-mg/mL Cell Proliferation kit solution diluted in complete MEM medium was added to each well, followed by 1-hour dark incubation at 25°C. After aspiration of media and inhibitors, the plates were dried in a hood for 15 minutes, and acidified isopropyl alcohol was added to dissolve formazan dye crystals. The plates were then rotated for 15–30 minutes, and absorbance was determined using a Perkin Elmer Ensight plate reader.

[3] = system: recombinant P. berghei GST; experiment: GST inhibition assay (CDNB); assay type: biochemical, Plasmodium berghei
Protocol: (§2) Enzymatic activities of recombinant GSTs were determined spectrophotometrically using the chromogenic substrate 1-chloro-2,4-dinitrobenzene (CDNB). Recombinant GST (0.35 mg/mL) was mixed with 1 mM CDNB in 100 mM HEPES. Stock solutions (10 mM) of the CB compounds and hemin were prepared in 100% dimethyl sulfoxide (DMSO) and then diluted at 0.5% DMSO ([14]). Each inhibitor has six concentrations ranging from 1 to 50 µM. The reaction was initiated with 1 mM glutathione (GSH) after 15 minutes. Absorbance change at 340 nm was measured for 1 hour. The slope was converted to micromole per minute using Beer’s equation and the extinction coefficient for the product S-(2,4-dinitrophenyl)glutathione (ε340 nm = 9.6 mM^–1 cm^–1) ([14]). The assay was validated using human placenta GST (#G8642) as a positive control.

[4] = system: P. falciparum TM91c235; experiment: Malaria SYBR Green I-Based Fluorescence (MSF) assay, blood stages; assay type: cell-based; conditions: Plasmodium falciparum; blood stages, 72 hours, multidrug resistant strain; read-out: IC50 (µM) (±SD) for strain: TM91c235
Protocol: (§3) MSF assays were performed in vitro with four P. falciparum strains: D6 (drug sensitive), TM91-C235 (multidrug resistant), W2 (CQ resistant), and C2B (multidrug resistant against ATQ). Parasite strains were kept continuously in long-term cultures as described ([22]). Pre-dosed 384-well plates containing […] serial dilutions of CB compounds (0.0098–20 µM) were prepared using the Tecan Freedom Evo liquid handling system (Tecan USA, Inc., Durham, NC, USA) and were stored at 4°C. A CQ control plate (2,000 ng/mL) was included in each run. Based on modifications of previous methods ([17], [55]), late-ring or early-trophozoite stages were cultured in pre-dosed plates with 0.3% parasitemia and 2% hematocrit. Cultures were incubated for 72 hours at 37°C in a controlled atmosphere of 5% CO2, 5% O2, and 90% N2. Lysis buffer, consisting of 20 mM Tris HCl, 5 mM EDTA, 1.6% Triton X, 0.016% saponin, and SYBR Green I dye at a 20X concentration (Invitrogen #S-7567), was added to the plates for a final 10X SYBR Green concentration. Plates containing cell culture media and lysis buffer were incubated in the dark at 25°C for 24 hours, and the relative fluorescence units (RFU) were measured using the Tecan Genios Plus (Tecan USA, Inc.).

[5] = system: P. falciparum C2B; experiment: as above; assay type: cell-based; conditions: Plasmodium falciparum, 72 h, read-out: IC50 (µM) (±SD) for strain: C2B
Protocol: as §3

[6] = system: P. falciparum W2; experiment: as above; assay type: cell-based; conditions: Plasmodium falciparum, W2; blood stages, 72 hours, CQ resistant strain; read-out: IC50 (µM) (±SD) for strain: W2
Protocol: as §3

[7] = system: P. falciparum D6; experiment: as above; assay type: cell-based; conditions: Plasmodium falciparum, D6; blood stages, 72 hours, drug-sensitive strain; read-out: IC50 (µM) (±SD) for strain: D6
Protocol: as §3

[8] = system: P. berghei ookinete development (Ookluc parasites); experiment: P. berghei ookinete luciferase inhibition assay; assay type: cell-based, Plasmodium berghei; conditions: dose–response 2.5–75 µM
Protocol: Mice were pretreated with phenylhydrazine [6 mg/mL, intraperitoneal injection (IP)] 3 days before intravenous injection (IV) infection with P. berghei Ookluc parasites ([19], [62]). Once parasitemia exceeded 15%, the mice received PYR (1 mg/mL, IP) ([19], [62]). Twenty-four hours after PYR treatment, infected mice were assessed for at least 10 exflagellations before blood was collected by heart puncture ([19], [62]). Infected blood (1:20 dilution) was incubated with 8-point serial dilutions (2.5–75 µM) of CB compounds for 24 hours at 19°C with gentle shaking ([62], [64]). Relative luminescence units (RLU) of mature ookinetes were measured using the Promega Nano-Glo Luciferase Assay System Kit and a SpectraMax M3 Microplate Reader (Molecular Devices, San Jose, CA, USA) after 3 minutes. Giemsa blood smears confirmed ookinetes.

[9] = molecular target: T1, human GST (Homo sapiens, UniProt P08263); experiment: GST inhibition assay (CDNB); assay type: biochemical
T1 construct: The open reading frames encoding PfGST, PbGST, and hGST were gene-synthesized; TEV cleavage site (C); Avitag (C); purchased InterRayBio, LLC; host or cells: E. coli BL21 (DE3)
T1 sequence (P08263 1-222): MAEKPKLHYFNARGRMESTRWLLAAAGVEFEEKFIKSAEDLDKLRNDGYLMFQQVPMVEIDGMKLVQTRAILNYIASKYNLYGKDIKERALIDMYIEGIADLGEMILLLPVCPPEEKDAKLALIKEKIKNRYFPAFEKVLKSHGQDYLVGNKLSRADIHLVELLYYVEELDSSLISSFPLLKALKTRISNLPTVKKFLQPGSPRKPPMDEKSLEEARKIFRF
Protocol: as §2

[10] = molecular target: T2, recombinant P. falciparum GST (Plasmodium falciparum, UniProt Q8ILQ7); experiment: GST inhibition assay (CDNB); assay type: biochemical
T2 construct: The open reading frames encoding PfGST, PbGST, and hGST were gene-synthesized; TEV cleavage site (C); Avitag (C); purchased InterRayBio, LLC; host or cells: E. coli BL21 (DE3)
T2 sequence (Q8ILQ7 1-211): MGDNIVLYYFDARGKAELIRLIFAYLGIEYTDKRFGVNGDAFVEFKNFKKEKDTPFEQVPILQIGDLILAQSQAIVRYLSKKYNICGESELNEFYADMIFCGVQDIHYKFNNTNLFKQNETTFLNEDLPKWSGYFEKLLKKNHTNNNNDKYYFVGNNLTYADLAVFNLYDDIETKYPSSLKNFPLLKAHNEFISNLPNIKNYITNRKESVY
Protocol: as §2

[11] = system: primary primate hepatocytes; experiment: hepatocyte toxicity in the P. cynomolgi liver-stage assay; assay type: cell-based
Protocol: as §1

[12] = system: P. berghei blood-stage parasites; experiment: P. berghei blood-stage isobolograms; assay type: cell-based, Plasmodium berghei; conditions: LUM in combination with DHA (positive control)
Protocol: Antimalarial activity and IC50 values of CB-61 and five antimalarial drugs were assessed using the previously described in vitro drug luminescence assay ([14], [68]). Blood-stage isobolograms were performed to confirm synergistic combinations between CB-61 and the five drugs, following established protocols ([69]). Thirty-two-fold IC50 concentrations were used to obtain six concentration ranges for each drug combination, and then they were serially diluted five times ([67]). IC50 scores for each drug alone were determined, and FIC50 values (FIC50 = […]) were calculated and plotted ([70], [71]). The Promega Luciferase Assay System Kit was used to measure mature schizonts’ RLUs, and Giemsa blood smears confirmed the presence of schizonts ([14]).

[13] = system: P. berghei male gamete activation; experiment: Exflagellation assay (male gametocyte activation); assay type: cell-based, Plasmodium berghei; conditions: 125 nM, positive control
Protocol: Exflagellation assays were performed to assess the effect of CB compounds on P. berghei male gametocyte activation ([19]). Tail blood from PYR-administered mice was mixed with DMSO, aphidicolin (125 nM), or CB compounds (10 µM) in complete ookinete medium and heparin (30 µg/mL) ([19]). After a 15-minute incubation, the sample was diluted in complete ookinete medium with 10 µM inhibitor and adjusted to a final blood concentration of 1:20. Exflagellations were quantified by counting all events in the middle squares of a hemocytometer. The effect of CB compounds on macrogamete formation was analyzed by flow cytometry using the anti-Pbs21 antibody ([65]). Following PYR administration, infected blood for cardiac puncture was cultured with CB compounds (10 µM) for 2 hours to stimulate gametocyte activation ([66]). Aliquots were then incubated with anti-Pbs21 antibody (1:500) for 1 hour, followed by anti-mouse IgG conjugated Alexa Fluor 594 (1:1,000) for another hour ([65]). Samples were centrifuged (3,000 × g for 3 minutes), pellets were resuspended in phosphate-buffered saline (PBS) and analyzed by flow cytometry (FACSCelesta, FACS Diva Software, BD Biosciences, San Jose, CA, USA) with 1 million events counted per experiment ([66]).

[14] = recombinant GST 0.35 mg/mL, 1–50 µM

O=C(Nc1cc(Cl)ccc1O)c1cc2nc(-c3ccccc3)cc(-c3ccccc3)n2n1 [CB-59]
IC50 ([1]; read-out: Hypnozoite IC50): > 10000 nM
IC50 ([1]; read-out: Schizont IC50): > 10000 nM
IC50 ([1]; read-out: Total parasite IC50): > 10000 nM
IC50 at 48 h [2]: > 20000 nM
GST inhibition ([3]; 6-point 1–50 µM): did not inhibit
IC50 [4]: 2.96 µM
IC50 [5]: 2.91 µM
IC50 [6]: 0.69 µM
IC50 [7]: 1.73 µM
activity in ookinete formation [8]: no activity
GST inhibition ([9]; 6-point 1–50 µM): did not inhibit
GST inhibition ([10]; 6-point 1–50 µM): did not inhibit
Toxicity [11]: >10 µM

CCCCN(CCCC)CC(O)c1cc(Cl)cc2c1-c1ccc(Cl)cc1/C2=C/c1ccc(Cl)cc1 (stereo not drawn) [LUM, lumefantrine, reference compound]
Mean ΣFIC50 [12]: 0.74

C[C@@]1(CO)[C@H](O)CC[C@@]2(C)[C@H]1CC[C@H]1C[C@@H]3C[C@@]12CC[C@]3(O)CO [aphidicolin]
number of exflagellation events [13]: < 50%

Hemin [reference compound]
IC50 [3, 14]: 16100 nM
IC50 [9, 14]: < 1000 nM
IC50 [10, 14]: 1600 nM
